System: panel of 55 breast cancer cell lines
Assay: Cell growth inhibition assay (Cell Titer Glo, 72 h, 9 doses; GI50, TGI, LC50)
Assay type: cell-based, human

## C[C@]12O[C@H](C[C@]1(O)CO)n1c3ccccc3c3c4c(c5c6ccccc6n2c5c31)CNC4=O [Lestaurtinib]
Homo sapiens, 600MPE cell line, censored GI50 values
  GI50: 1700 nM
Homo sapiens, AU565, AU565 cell line, censored GI50 values
  GI50: 851 nM
Homo sapiens, AU565, cell line AU565
  GI50: 851 nM
Homo sapiens, BT-20, BT20 cell line, censored GI50 values
  GI50: 3240 nM
Homo sapiens, BT-20, cell line BT20
  GI50: 3240 nM
Homo sapiens, BT-474, BT474 cell line, censored GI50 values
  GI50: 245 nM
Homo sapiens, BT-474, cell line BT474
  GI50: 245 nM
Homo sapiens, BT-483, BT483 cell line, censored GI50 values
  GI50: 741 nM
Homo sapiens, BT-483, cell line BT483
  GI50: 741 nM
Homo sapiens, CAMA-1, CAMA1 cell line, censored GI50 values
  GI50: 2240 nM
Homo sapiens, CAMA-1, cell line CAMA1
  GI50: 2240 nM
Homo sapiens, HCC38, cell line HCC38
  GI50: 61.7 nM
Homo sapiens, HCC70, cell line HCC70
  GI50: 182 nM
Homo sapiens, HCC1143, HCC1143 cell line, censored GI50 values
  GI50: 331 nM
Homo sapiens, HCC1143, cell line HCC1143
  GI50: 331 nM
Homo sapiens, HCC1187, HCC1187 cell line, censored GI50 values
  GI50: 832 nM
Homo sapiens, HCC1187, cell line HCC1187
  GI50: 832 nM
Homo sapiens, HCC1419, HCC1419 cell line, censored GI50 values
  GI50: 1150 nM
Homo sapiens, HCC1419, cell line HCC1419
  GI50: 1150 nM
Homo sapiens, HCC1428, HCC1428 cell line, censored GI50 values
  GI50: 537 nM
Homo sapiens, HCC1428, cell line HCC1428
  GI50: 537 nM
Homo sapiens, HCC1500, HCC1500 cell line, censored GI50 values
  GI50: 158 nM
Homo sapiens, HCC1500, cell line HCC1500
  GI50: 158 nM
Homo sapiens, HCC1806, HCC1806 cell line, censored GI50 values
  GI50: 162 nM
Homo sapiens, HCC1806, cell line HCC1806
  GI50: 162 nM
Homo sapiens, HCC1937, HCC1937 cell line, censored GI50 values
  GI50: 617 nM
Homo sapiens, HCC1937, cell line HCC1937
  GI50: 617 nM
Homo sapiens, HCC1954, HCC1954 cell line, censored GI50 values
  GI50: 4900 nM
Homo sapiens, HCC1954, cell line HCC1954
  GI50: 4900 nM
Homo sapiens, MCF7, cell line MCF7
  GI50: 1410 nM
Homo sapiens, MDA-MB-361, cell line MDAMB361
  GI50: 525 nM
Homo sapiens, MDA-MB-436, cell line MDAMB436
  GI50: 1380 nM
Homo sapiens, MDA-MB-453, cell line MDAMB453
  GI50: 661 nM
Homo sapiens, MDA-MB-468, cell line MDAMB468
  GI50: 407 nM
Homo sapiens, SK-BR-3, cell line SKBR3
  GI50: 1020 nM
Homo sapiens, SUM52PE, cell line SUM52PE
  GI50: 138 nM
Homo sapiens, SUM149PT, cell line SUM149PT
  GI50: 91.2 nM
Homo sapiens, SUM185PE, cell line SUM185PE
  GI50: 63.1 nM
Homo sapiens, SUM225CWN, cell line SUM225CWN
  GI50: 1000 nM
Homo sapiens, SUM-159-PT, cell line SUM159PT
  GI50: 288 nM
Homo sapiens, T47D, cell line T47D
  GI50: 5620 nM
Homo sapiens, UACC-812, cell line UACC812
  GI50: 1050 nM
Homo sapiens, ZR-75-1, cell line ZR751
  GI50: 1780 nM
Homo sapiens, ZR-75B, cell line ZR75B
  GI50: 457 nM
Homo sapiens, cell line 600MPE
  GI50: 1700 nM
Homo sapiens, cell line HCC2185
  GI50: 3240 nM
Homo sapiens, cell line HCC3153
  GI50: 7760 nM
Homo sapiens, cell line MDAMB134V
  GI50: 363 nM
Homo sapiens, cell line MDAMB175V
  GI50: 813 nM
Homo sapiens, cell line SUM1315MO
  GI50: 37.2 nM

## Cc1cc(C(=O)N2CCN(c3cccc(Cl)c3)CC2)n(-c2ccccc2)n1 [XRP44X]
AU565 cell line, censored GI50 values, value is the negative log10 of mol/L
  GI50: 6.35
BT20 cell line, censored GI50 values, value is the negative log10 of mol/L
  GI50: 5.29
BT474 cell line, censored GI50 values, value is the negative log10 of mol/L
  GI50: 5.34
BT483 cell line, censored GI50 values, value is the negative log10 of mol/L
  GI50: 4.18
CAMA1 cell line, censored GI50 values, value is the negative log10 of mol/L
  GI50: 6.27
HCC38 cell line, censored GI50 values, value is the negative log10 of mol/L
  GI50: 5.85
HCC70 cell line, censored GI50 values, value is the negative log10 of mol/L
  GI50: 5.98
HCC1187 cell line, censored GI50 values, value is the negative log10 of mol/L
  GI50: 6.23
HCC1428 cell line, censored GI50 values, value is the negative log10 of mol/L
  GI50: 5.85
HCC1500 cell line, censored GI50 values, value is the negative log10 of mol/L
  GI50: 5.74
HCC1806 cell line, censored GI50 values, value is the negative log10 of mol/L
  GI50: 5.92
HCC1954 cell line, censored GI50 values, value is the negative log10 of mol/L
  GI50: 6.30
HCC2185 cell line, censored GI50 values, value is the negative log10 of mol/L
  GI50: 6.63
HCC3153 cell line, censored GI50 values, value is the negative log10 of mol/L
  GI50: 5.95
LY2 cell line, censored GI50 values, value is the negative log10 of mol/L
  GI50: 6.08
MCF7 cell line, censored GI50 values, value is the negative log10 of mol/L
  GI50: 6.40
MDAMB134VI cell line, censored GI50 values, value is the negative log10 of mol/L
  GI50: 6.21
MDAMB175VII cell line, censored GI50 values, value is the negative log10 of mol/L
  GI50: 5.44
MDAMB361 cell line, censored GI50 values, value is the negative log10 of mol/L
  GI50: 6.06
MDAMB415 cell line, censored GI50 values, value is the negative log10 of mol/L
  GI50: 6.30
MDAMB436 cell line, censored GI50 values, value is the negative log10 of mol/L
  GI50: 5.47
MDAMB453 cell line, censored GI50 values, value is the negative log10 of mol/L
  GI50: 6.20
MDAMB468 cell line, censored GI50 values, value is the negative log10 of mol/L
  GI50: 5.93
SKBR3 cell line, censored GI50 values, value is the negative log10 of mol/L
  GI50: 5.58
SUM52PE cell line, censored GI50 values, value is the negative log10 of mol/L
  GI50: 6.06
SUM149PT cell line, censored GI50 values, value is the negative log10 of mol/L
  GI50: 5.63
SUM159PT cell line, censored GI50 values, value is the negative log10 of mol/L
  GI50: 6.16
SUM1315MO2 cell line, censored GI50 values, value is the negative log10 of mol/L
  GI50: 6.11
T47D cell line, censored GI50 values, value is the negative log10 of mol/L
  GI50: 5.29
UACC812 cell line, censored GI50 values, value is the negative log10 of mol/L
  GI50: 6.30
ZR75B cell line, censored GI50 values, value is the negative log10 of mol/L
  GI50: 5.90
ZR751 cell line, censored GI50 values, value is the negative log10 of mol/L
  GI50: 5.90
Cell line AU565, value is the negative log10 of mol/L
  GI50: 6.35
Cell line BT20, value is the negative log10 of mol/L
  GI50: 5.29
Cell line BT474, value is the negative log10 of mol/L
  GI50: 5.34
Cell line BT483, value is the negative log10 of mol/L
  GI50: 4.18
Cell line CAMA1, value is the negative log10 of mol/L
  GI50: 6.27
Cell line HCC38, value is the negative log10 of mol/L
  GI50: 5.85
Cell line HCC70, value is the negative log10 of mol/L
  GI50: 5.98
Cell line HCC1187, value is the negative log10 of mol/L
  GI50: 6.23
Cell line HCC1419, value is the negative log10 of mol/L
  GI50: 3.88
Cell line HCC1428, value is the negative log10 of mol/L
  GI50: 5.85
Cell line HCC1500, value is the negative log10 of mol/L
  GI50: 5.74
Cell line HCC1806, value is the negative log10 of mol/L
  GI50: 5.92
Cell line HCC1937, value is the negative log10 of mol/L
  GI50: 3.88
Cell line HCC1954, value is the negative log10 of mol/L
  GI50: 6.30
Cell line HCC2185, value is the negative log10 of mol/L
  GI50: 6.63
Cell line HCC3153, value is the negative log10 of mol/L
  GI50: 5.95
Cell line LY2, value is the negative log10 of mol/L
  GI50: 6.08
Cell line MCF7, value is the negative log10 of mol/L
  GI50: 6.40
Cell line MDAMB134V, value is the negative log10 of mol/L
  GI50: 6.21
Cell line MDAMB175V, value is the negative log10 of mol/L
  GI50: 5.44
Cell line MDAMB361, value is the negative log10 of mol/L
  GI50: 6.06
Cell line MDAMB415, value is the negative log10 of mol/L
  GI50: 6.30
Cell line MDAMB436, value is the negative log10 of mol/L
  GI50: 5.47
Cell line MDAMB453, value is the negative log10 of mol/L
  GI50: 6.20
Cell line MDAMB468, value is the negative log10 of mol/L
  GI50: 5.93
Cell line SKBR3, value is the negative log10 of mol/L
  GI50: 5.58
Cell line SUM52PE, value is the negative log10 of mol/L
  GI50: 6.06
Cell line SUM149PT, value is the negative log10 of mol/L
  GI50: 5.63
Cell line SUM159PT, value is the negative log10 of mol/L
  GI50: 6.16
Cell line SUM1315MO, value is the negative log10 of mol/L
  GI50: 6.11
Cell line T47D, value is the negative log10 of mol/L
  GI50: 5.29
Cell line UACC812, value is the negative log10 of mol/L
  GI50: 6.30
Cell line ZR75B, value is the negative log10 of mol/L
  GI50: 5.90
Cell line ZR751, value is the negative log10 of mol/L
  GI50: 5.90
